Results: patent US7981903B2, “2-[2-{phenylamino}-1H-pyrrolo[2,3-D]pyrimidin-4-yl)amino] benzamide derivatives as IGF-1R inhibitors for the treatment of cancer” (GlaxoSmithKline LLC, priority 2007, dated 2011)

Experiments:
human IGF1R (hIGF1R) = molecular target: T1, human IGF1R (hIGF1R) (Homo sapiens, UniProt P08069); assay: TR-FRET kinase assay of purified hIGF1R; format: biochemical; conditions: activated hIGF1R 0.5 nM, 10 μM ATP, values given as pIC50 category, read-out: IGF-1R pIC50 (converted)
T1 construct: containing amino acid residues 957-1367 of human IGF1R; made in house; host or cells: Sf9 cells (baculovirus)

human IR (hIR) = molecular target: T2, human IR (hIR) (Homo sapiens, UniProt P06213); assay: TR-FRET kinase assay of purified hIR; format: biochemical; conditions: activated hIR 0.5 nM, 10 μM ATP, values given as pIC50 category
T2 construct: containing amino acid residues 979-1382 of human IR; made in house; host or cells: Sf9 cells (baculovirus), same process as hIGF1R

ALK = ALK (Homo sapiens, UniProt Q9UM73); assay: ALK enzyme assay (HTRF); format: biochemical; conditions: 0.25 nM ALK, 15.0 μM ATP, values given as pIC50 category
Method in brief: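 Isolated ALK phosphorylates a biotinylated tyrosine peptide, 120 min at 20° C; anti-phosphotyrosine Eu-cryptate/streptavidin-XL665 HTRF read after 60 min with EDTA-containing detection mix.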

[1] = molecular target: T3, NIH-3T3 cells overexpressing human IGF-1R (Homo sapiens, UniProt P08069); assay: IGF-1R cellular autophosphorylation (DELFIA); format: cell-based
T3 construct: expressed in transfected cells; host or cells: NIH-3T3 (mouse fibroblasts)
Method in brief: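 Receptor autophosphorylation measured by DELFIA, capturing IGF-1R or IRβ and detecting with europium anti-pTyr, reported as percent of IGF-1- or insulin-stimulated signal. Compounds (30 uM to 1.5 nM) added 2 h before ligand, then 15 min stimulation (IGF-1 30 ng/ml or insulin 3 ug/ml).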

[2] = molecular target: T4, NIH-3T3 cells overexpressing human IR (Homo sapiens, UniProt P06213); assay: IR cellular autophosphorylation (DELFIA); format: cell-based; conditions: 2 h compound, insulin 3 ug/ml for 15 minutes, IC50 category
T4 construct: expressed in transfected cells; host or cells: NIH-3T3 (mouse fibroblasts)
Description: NIH-3T3 cells overexpressing human IGF-1R or IR were plated in 96-well plates (10,000 cells/well) in culture media containing 10% fetal bovine serum and incubated at 37° C. in a 5% CO2 incubator. Twenty four hours post-plating, cells were treated with different concentrations of test compounds ranging from 30 uM to 1.5 nM. Two hours after compound addition, cells were stimulated with either human IGF-1 (30 ng/ml) or insulin (3 ug/ml) for 15 minutes. Cell lysates are analyzed for phosphorylated receptors using dissociation enhanced lanthanide fluor-immuno assay (DELFIA) with anti-IGF-1R (MAB391, R&D Systems, Minneapolis, Minn.) or anti-IRβ (sc-711, Santa Cruz Biotechnology, Santa Cruz, Calif.) capture antibody and europium-labeled anti-pTyr antibody (Eu-N1 PT66, Perkin Elmer, Waltham, Mass.) for detection. The fluorescence signal for cells treated with compounds was expressed as percent relative to 100% stimulation (IGF-1 or insulin stimulated signal).

T2 sequence (P06213 979-1382): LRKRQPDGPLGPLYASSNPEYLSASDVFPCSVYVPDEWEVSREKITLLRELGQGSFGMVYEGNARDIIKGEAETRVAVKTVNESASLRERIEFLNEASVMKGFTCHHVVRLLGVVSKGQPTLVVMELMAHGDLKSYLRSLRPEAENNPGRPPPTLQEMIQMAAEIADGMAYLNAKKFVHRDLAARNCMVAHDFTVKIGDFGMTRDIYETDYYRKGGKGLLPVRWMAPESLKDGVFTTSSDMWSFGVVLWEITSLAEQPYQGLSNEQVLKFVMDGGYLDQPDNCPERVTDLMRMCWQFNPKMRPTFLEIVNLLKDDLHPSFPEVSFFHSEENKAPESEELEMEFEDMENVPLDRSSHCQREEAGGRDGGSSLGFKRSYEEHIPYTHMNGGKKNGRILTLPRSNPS
T3 sequence (P08069 31-1367): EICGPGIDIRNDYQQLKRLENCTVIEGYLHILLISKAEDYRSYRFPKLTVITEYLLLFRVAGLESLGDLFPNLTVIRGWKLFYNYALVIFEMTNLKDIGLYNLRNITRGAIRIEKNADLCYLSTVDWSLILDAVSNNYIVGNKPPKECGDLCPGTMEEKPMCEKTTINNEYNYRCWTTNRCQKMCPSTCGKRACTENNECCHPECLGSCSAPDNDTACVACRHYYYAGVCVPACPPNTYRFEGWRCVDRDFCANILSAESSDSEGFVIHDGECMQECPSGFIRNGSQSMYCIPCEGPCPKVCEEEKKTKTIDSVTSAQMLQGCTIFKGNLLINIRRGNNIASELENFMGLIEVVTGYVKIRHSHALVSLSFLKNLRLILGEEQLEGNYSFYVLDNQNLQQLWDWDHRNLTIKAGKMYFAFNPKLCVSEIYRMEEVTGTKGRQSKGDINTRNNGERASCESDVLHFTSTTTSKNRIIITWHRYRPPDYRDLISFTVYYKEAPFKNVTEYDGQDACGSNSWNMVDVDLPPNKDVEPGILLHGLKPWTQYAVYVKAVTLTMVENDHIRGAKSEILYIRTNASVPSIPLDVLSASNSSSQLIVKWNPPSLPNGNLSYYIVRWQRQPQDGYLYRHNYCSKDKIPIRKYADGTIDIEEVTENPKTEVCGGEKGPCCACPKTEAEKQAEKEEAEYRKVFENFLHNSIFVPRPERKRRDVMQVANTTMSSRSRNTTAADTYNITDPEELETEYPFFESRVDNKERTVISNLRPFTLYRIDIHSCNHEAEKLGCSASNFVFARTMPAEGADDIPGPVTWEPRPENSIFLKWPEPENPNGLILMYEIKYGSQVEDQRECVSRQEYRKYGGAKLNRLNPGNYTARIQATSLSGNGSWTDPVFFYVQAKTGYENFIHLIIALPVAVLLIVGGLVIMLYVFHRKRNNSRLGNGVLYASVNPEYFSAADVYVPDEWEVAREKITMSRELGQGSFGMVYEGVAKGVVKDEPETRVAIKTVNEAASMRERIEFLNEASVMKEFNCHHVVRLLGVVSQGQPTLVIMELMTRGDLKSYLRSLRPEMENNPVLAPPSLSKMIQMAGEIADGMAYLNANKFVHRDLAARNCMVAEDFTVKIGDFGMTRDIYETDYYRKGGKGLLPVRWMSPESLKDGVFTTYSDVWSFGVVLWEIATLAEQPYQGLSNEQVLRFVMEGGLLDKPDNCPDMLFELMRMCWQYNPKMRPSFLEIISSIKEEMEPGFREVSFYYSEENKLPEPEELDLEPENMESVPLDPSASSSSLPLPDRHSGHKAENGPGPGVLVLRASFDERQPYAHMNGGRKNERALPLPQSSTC
T1 sequence (P08069 957-1367): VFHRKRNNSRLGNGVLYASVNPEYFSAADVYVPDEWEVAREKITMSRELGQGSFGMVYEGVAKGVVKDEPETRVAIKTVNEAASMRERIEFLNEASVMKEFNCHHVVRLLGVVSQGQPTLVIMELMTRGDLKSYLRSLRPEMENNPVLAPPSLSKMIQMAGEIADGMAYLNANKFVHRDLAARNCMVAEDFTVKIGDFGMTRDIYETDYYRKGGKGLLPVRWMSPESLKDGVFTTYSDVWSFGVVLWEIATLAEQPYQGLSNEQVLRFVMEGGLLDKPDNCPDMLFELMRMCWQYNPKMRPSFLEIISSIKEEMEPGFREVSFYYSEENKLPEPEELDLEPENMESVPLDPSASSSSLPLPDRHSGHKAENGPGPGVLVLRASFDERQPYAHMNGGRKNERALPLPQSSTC
ALK, sequence (Q9UM73 19-1620): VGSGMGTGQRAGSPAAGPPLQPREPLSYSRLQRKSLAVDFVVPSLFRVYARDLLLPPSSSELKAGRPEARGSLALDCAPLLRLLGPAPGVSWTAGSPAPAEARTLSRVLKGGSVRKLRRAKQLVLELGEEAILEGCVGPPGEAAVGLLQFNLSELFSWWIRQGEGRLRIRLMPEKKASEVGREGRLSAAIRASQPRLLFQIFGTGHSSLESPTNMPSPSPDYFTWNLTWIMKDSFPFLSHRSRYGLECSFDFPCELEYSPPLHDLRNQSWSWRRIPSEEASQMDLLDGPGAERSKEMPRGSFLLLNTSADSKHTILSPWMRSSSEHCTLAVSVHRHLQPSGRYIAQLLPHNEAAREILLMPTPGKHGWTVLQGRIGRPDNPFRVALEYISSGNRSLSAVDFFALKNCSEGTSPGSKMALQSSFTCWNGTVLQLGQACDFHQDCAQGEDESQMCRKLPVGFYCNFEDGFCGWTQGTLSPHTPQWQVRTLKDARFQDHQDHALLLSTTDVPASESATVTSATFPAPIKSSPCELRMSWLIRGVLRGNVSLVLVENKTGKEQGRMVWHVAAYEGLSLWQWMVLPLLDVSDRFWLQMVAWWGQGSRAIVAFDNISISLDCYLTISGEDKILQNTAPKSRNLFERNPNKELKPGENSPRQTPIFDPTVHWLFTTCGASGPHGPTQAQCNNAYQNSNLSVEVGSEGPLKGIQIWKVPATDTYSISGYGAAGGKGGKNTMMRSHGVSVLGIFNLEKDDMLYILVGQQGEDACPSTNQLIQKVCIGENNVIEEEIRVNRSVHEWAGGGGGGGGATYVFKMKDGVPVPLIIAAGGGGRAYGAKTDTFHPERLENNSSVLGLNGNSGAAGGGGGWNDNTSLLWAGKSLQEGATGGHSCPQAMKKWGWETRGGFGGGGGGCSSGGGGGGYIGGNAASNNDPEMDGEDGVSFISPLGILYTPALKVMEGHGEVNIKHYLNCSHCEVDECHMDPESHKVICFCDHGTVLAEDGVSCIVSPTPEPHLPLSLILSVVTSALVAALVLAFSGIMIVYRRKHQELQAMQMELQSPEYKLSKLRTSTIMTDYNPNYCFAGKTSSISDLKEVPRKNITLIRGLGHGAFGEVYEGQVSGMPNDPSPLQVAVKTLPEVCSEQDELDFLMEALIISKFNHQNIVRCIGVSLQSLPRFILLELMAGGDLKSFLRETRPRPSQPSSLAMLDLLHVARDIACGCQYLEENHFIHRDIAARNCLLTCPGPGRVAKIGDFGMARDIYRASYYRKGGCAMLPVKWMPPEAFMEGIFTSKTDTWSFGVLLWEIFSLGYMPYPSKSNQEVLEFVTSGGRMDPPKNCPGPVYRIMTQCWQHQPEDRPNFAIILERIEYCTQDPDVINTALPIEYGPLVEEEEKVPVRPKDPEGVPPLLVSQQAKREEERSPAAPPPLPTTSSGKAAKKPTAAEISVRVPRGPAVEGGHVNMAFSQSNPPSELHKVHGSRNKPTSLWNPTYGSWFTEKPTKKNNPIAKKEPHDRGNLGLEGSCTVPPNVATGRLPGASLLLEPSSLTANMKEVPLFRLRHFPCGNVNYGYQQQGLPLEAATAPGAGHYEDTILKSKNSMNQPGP
T4 sequence (P06213 28-1382): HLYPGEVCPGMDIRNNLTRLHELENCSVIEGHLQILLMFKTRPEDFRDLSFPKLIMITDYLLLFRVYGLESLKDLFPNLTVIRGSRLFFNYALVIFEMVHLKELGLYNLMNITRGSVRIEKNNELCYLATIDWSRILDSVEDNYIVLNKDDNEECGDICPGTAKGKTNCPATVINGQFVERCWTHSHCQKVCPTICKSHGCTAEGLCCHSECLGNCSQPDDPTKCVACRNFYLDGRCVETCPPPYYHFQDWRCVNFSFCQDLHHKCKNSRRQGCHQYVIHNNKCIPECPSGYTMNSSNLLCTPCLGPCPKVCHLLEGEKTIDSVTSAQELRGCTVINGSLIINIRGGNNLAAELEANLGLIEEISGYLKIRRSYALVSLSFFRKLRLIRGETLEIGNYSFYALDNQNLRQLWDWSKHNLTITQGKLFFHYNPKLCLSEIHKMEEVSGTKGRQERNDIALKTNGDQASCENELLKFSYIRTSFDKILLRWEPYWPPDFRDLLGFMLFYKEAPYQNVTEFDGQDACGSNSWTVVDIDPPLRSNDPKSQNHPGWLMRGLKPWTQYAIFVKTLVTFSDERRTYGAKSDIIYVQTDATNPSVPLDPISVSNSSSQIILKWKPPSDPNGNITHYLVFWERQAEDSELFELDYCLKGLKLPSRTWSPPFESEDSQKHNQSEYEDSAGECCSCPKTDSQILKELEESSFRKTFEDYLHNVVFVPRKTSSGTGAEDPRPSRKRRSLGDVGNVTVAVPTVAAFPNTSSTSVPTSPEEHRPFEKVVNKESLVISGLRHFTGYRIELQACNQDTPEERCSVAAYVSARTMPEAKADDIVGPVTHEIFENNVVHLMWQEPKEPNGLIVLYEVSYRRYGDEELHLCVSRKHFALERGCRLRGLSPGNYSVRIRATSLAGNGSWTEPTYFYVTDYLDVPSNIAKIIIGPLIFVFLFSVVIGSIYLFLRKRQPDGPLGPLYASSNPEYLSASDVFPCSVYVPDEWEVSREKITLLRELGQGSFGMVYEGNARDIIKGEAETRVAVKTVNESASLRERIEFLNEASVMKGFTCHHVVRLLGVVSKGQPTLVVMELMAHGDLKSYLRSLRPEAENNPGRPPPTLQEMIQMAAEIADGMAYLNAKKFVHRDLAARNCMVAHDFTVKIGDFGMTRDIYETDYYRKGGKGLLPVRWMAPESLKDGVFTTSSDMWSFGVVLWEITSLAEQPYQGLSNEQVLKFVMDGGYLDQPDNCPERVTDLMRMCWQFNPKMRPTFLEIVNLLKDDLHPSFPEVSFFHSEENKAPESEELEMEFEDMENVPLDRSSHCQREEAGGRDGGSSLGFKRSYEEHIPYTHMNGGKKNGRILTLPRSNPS

| Structure (SMILES) | IC50 (human IGF1R (hIGF1R)) [nM] | IC50 (human IR (hIR)) [nM] | IC50 (ALK) [nM] | IC50 [1] [nM] | IC50 [2] [nM] |
| --- | --- | --- | --- | --- | --- |
| COc1cc(N2CCOCC2)ccc1Nc1nc(Nc2ccccc2C(N)=O)c2cc[nH]c2n1 [Example 12, 2-[(2-{[2-(methyloxy)-4-(4-morpholinyl)phenyl]amino}-1H-pyrrolo[2,3-d]pyrimidin-4-yl)amino]benzamide] | 1.26 to 3.98 | 0.251 to 1 | 0.251 to 1 | 100 to 500 | 100 to 500 |
| Cc1ccc(NC(=O)CN2CCCC2)cc1Nc1nc(Nc2ccccc2C(N)=O)c2cc[nH]c2n1 [Example 14, 2-{[2-({2-methyl-5-[(1-pyrrolidinylacetyl)amino]phenyl}amino)-1H-pyrrolo[2,3-d]pyrimidin-4-yl]amino}benzamide] | 1.26 to 3.98 | 0.251 to 1 | 1.26 to 3.98 | 100 to 500 | 100 to 500 |
| CCCN1CCC=C(c2ccc(Nc3nc(Nc4ccccc4C(=O)NC)c4cc[nH]c4n3)c(OC)c2)C1 [Example 23, N-methyl-2-[(2-{[2-(methyloxy)-4-(1-propyl-1,2,5,6-tetrahydro-3-pyridinyl)phenyl]amino}-1H-pyrrolo[2,3-d]pyrimidin-4-yl)amino]benzamide] | 1.26 to 3.98 | 0.251 to 1 | 0.251 to 1 | 100 to 500 | 100 to 500 |
| Cc1ccc(NC(=O)CN(C)C)cc1Nc1nc(Nc2ccccc2C(=O)NCc2ccc(F)cc2)c2cc[nH]c2n1 [Example 27, 2-{[2-({5-[(N,N-dimethylglycyl)amino]-2-methylphenyl}amino)-1H-pyrrolo[2,3-d]pyrimidin-4-yl]amino}-N-[(4-fluorophenyl)methyl]benzamide] | 5.01 to 200 | 1.26 to 3.98 | 5.01 to 200 | > 500 | > 500 |
| CCCN1CCC=C(c2ccc(Nc3nc(Nc4cc5ccccc5cc4C(N)=O)c4cc[nH]c4n3)c(OC)c2)C1 [Example 29, 3-[(2-{[2-(methyloxy)-4-(1-propyl-1,2,5,6-tetrahydro-3-pyridinyl)phenyl]amino}-1H-pyrrolo[2,3-d]pyrimidin-4-yl)amino]-2-naphthalenecarboxamide] | 1.26 to 3.98 | 1.26 to 3.98 | 1.26 to 3.98 | 100 to 500 | 100 to 500 |
| CCCN1CCCC(c2ccc(Nc3nc(Nc4cccc(OC)c4C(N)=O)c4cc[nH]c4n3)c(OC)c2)C1 (centres unmarked) [Example 36, 2-(methyloxy)-6-[(2-{[2-(methyloxy)-4-(1-propyl-3-piperidinyl)phenyl]amino}-1H-pyrrolo[2,3-d]pyrimidin-4-yl)amino]benzamide] | 1.26 to 3.98 | 1.26 to 3.98 | 1.26 to 3.98 | 100 to 500 | 100 to 500 |
| CCCN1CCC=C(c2ccc(Nc3nc(Nc4cccc(F)c4C(N)=O)c4cc[nH]c4n3)c(OC)c2)C1 [Example 41, 2-fluoro-6-[(2-{[2-(methyloxy)-4-(1-propyl-1,2,5,6-tetrahydro-3-pyridinyl)phenyl]amino}-1H-pyrrolo[2,3-d]pyrimidin-4-yl)amino]benzamide] | 1.26 to 3.98 | 1.26 to 3.98 | 0.251 to 1 | 100 to 500 | 100 to 500 |
| Cc1ccc(NC(=O)CN(C)C)cc1Nc1nc(Nc2ccc(F)cc2C(N)=O)c2cc[nH]c2n1 [Example 62, 2-{[2-({5-[(N,N-dimethylglycyl)amino]-2-methylphenyl}amino)-1H-pyrrolo[2,3-d]pyrimidin-4-yl]amino}-5-fluorobenzamide] | 1.26 to 3.98 | 0.251 to 1 | 5.01 to 200 | 100 to 500 | 100 to 500 |
| CNC(=O)c1c(F)cccc1Nc1nc(Nc2cc(N(C)C(=O)CN(C)C)c(C)cc2OC)nc2[nH]ccc12 [Example 254, 2-[(2-{[5-[(N,N-dimethylglycyl)(methyl)amino]-4-methyl-2-(methyloxy)phenyl]amino}-1H-pyrrolo[2,3-d]pyrimidin-4-yl)amino]-6-fluoro-N-methylbenzamide] | – | 5.01 to 158 | 5.01 to 200 | > 500 | > 500 |
